Experimental data published in publication PMC5736709, “Unravelling the specificity and mechanism of sialic acid recognition by the gut symbiont Ruminococcus gnavus” (Nature Communications, 2017).
Where “and” joins values, the source holds several entries; their conditions need not be identical. Equal values may be shown once. Entries after “also recorded” stand apart in the source; their conditions may differ. Read-outs that look alike come from different tables or passages of the source.

Legend:
Design in all cases: species or system Ruminococcus gnavus ATCC 29149
RgCBM40 [1] = target: T1, RgCBM40 (Mediterraneibacter gnavus (Ruminococcus gnavus), UniProt A7B557); experiment: STD NMR of sialoglycans with RgCBM40 WT; conditions: 1 mM sialoglycan, 50 μM RgCBM40 WT, 288 K; 'exception' = monosaccharides for which binding was not detected
Experimental: ^1H and ^13C resonance assignment for all the sugars was performed on the bases of 1D ^1H, 2D DQF-COSY, TOCSY, HSQC and NOESY experiments run on the free ligands in unbuffered D2O, pH 7.0. For STD NMR experiments, all the samples consisted of 1 mM sialoglycans and 50 μM RgCBM40 (WT or I95A mutant) in D2O buffer solution of 10 mM Tris-d11 pH 7.8 and 100 mM NaCl (ligand: protein ratio 20:1). An STD pulse sequence that included 2.5 ms and 5 ms trim pulses and a 3 ms spoil gradient was used. Saturation was achieved applying a train of 50 ms Gaussian pulses (0.40 mW) on the f2 channel, at 0.60 p.p.m. (on-resonance experiments) and 40 p.p.m. (off-resonance experiments). The broad protein signals were removed using a 40 ms spinlock (T1ρ) filter. All the experiments were recorded at ^1H frequency of 800.23 MHz on a Bruker Avance III spectrometer equipped with a 5 mm probe TXI 800 MHz H-C/N-D-05 Z BTO, at 288 K. For all the sialoglycans in the presence of RgCBM40, an STD experiment with a saturation time of 2 s and a relaxation delay of 5 s was performed, as a first test for binding. For the confirmed binders, the STD NMR experiments were carried out at different saturation times (0.5, 1, 2, 3, 4 and 5 s) with 1 K scans and relaxation delay of 5 s, in order to obtain the binding epitope mapping. The resulting build-up curves for each proton were fitted mathematically to a mono-exponential equation (y = a×[1-exp(b×x)]), from which the initial slopes (a×b) were obtained. For each ligand, the binding epitope mapping was obtained by dividing the initial slopes by the one of the H7 proton of the corresponding sialic acid ring, to which an arbitrary value of 100% was assigned. This normalisation of the STD values allows the comparison across all the sialoglycans.

RgCBM40 [2] = target: T1, RgCBM40; experiment: ITC of sialoglycans binding to RgCBM40 wild type; conditions: RgCBM40 WT; for Kd: ITC in PBS, 115-230 μM protein in cell, syringe 10 mM sugar (25 mM for Neu5Ac), * = estimate only, Kd too high to determine
Experimental: Isothermal titration calorimetry (ITC) experiments were performed using the PEAQ-ITC system (Malvern, Malvern, UK) with a cell volume of 200 µl. Prior to titration protein samples were exhaustively dialysed into PBS. The ligand was dissolved in the dialysis buffer. The cell protein concentration was 115 µM (except for mutant I95A where it was 173 µM and the wild-type interaction with 6′SL where it was 230 µM) and the syringe ligand concentration was 10 mM (25 mM for Neu5Ac). Controls with titrant (sugar) injected into buffer only were subtracted from the data. Analysis was performed using Malvern software, using a single-binding site model. The stoichiometry of binding sites was set to 1.0 as this was evident from the crystal structure. Quantitative and most qualitative experiments were carried out in triplicate.

RgGH33 D282A = experiment: Sialoglycan microarray binding of RgGH33 D282A; conditions: RgGH33 D282A at 200 µg ml^−1
Experimental: (§1) Glycan microarrays were fabricated using epoxide-derivatized slides as previously described. Printed glycan microarray slides were blocked by ethanolamine, washed and dried. Slides were then fitted in a multi-well microarray hybridisation cassette (AHC4X8S, ArrayIt, Sunnyvale, CA, USA) to divide into 8 subarrays. The subarrays were blocked with ovalbumin (1% w/v) in PBS (pH 7.4) for 1 h at room temperature, with gentle shaking. Subsequently, the blocking solution was removed and diluted protein samples of RgCBM40 and RgGH33 D282A with various concentrations were added to each subarray. After incubating the samples for 2 h at room temperature with gentle shaking, the slides were washed. Diluted anti-His-HiLyte Flour 555 antibodies in PBS were added to the subarrays, incubated for 1 h at room temperature, washed and dried. The microarray slides were scanned by Genepix 4000B microarray scanner (Molecular Devices Corp., Union City, CA, USA). The data analysis was performed using Genepix Pro 7.0 analysis software (Molecular Devices Corp.). It is important to note that glycans on the array with sialic acid O-acetyl groups undergo gradual losses of these labile ester groups. Therefore, definitive conclusions about 9-O-acetylation are only possible in instances wherein binding is exclusively to the O-acetylated sialoglycan spot, and not to the corresponding non-O-acetylated spot.

RgCBM40 [3] = target: T1, RgCBM40; experiment: Sialoglycan microarray binding of RgCBM40; conditions: for Binding of RgCBM40 on sialoglycan microarray: RgCBM40 at 20 µg ml^−1; for Binding intensity on sialoglycan microarray, fold less: RgCBM40, βR1-linked glycans
Experimental: as §1

T1 sequence (A7B557 entry or part of it): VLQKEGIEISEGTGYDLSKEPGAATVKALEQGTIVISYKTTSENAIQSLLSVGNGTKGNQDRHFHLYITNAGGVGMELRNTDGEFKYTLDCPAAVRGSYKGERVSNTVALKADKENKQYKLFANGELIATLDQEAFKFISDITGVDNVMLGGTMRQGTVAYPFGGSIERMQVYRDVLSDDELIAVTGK

CC(=O)N[C@H]1C2OC(C(=O)O)(C[C@@H]1O)O[C@@H]2[C@H](O)CO (stereo partly drawn) [2,7-anhydro-Neu5Ac]
Binding to RgCBM40 detected by STD NMR (RgCBM40 [1]): exception

CC(=O)NC1C(O)CC(OC2C(O)C(O)OC(CO)C2O)(C(=O)O)OC1C(O)C(O)CO (stereo not drawn) [3′SGal, Neu5Acα3Gal]
Binding to RgCBM40 detected by STD NMR (RgCBM40 [1]): detected

O=C(CO)N[C@H]1[C@H]([C@H](O)[C@H](O)CO)O[C@@](O[C@H]2[C@@H](O)[C@@H](CO)O[C@@H](O[C@H]3[C@H](O)[C@@H](O)C(O)O[C@@H]3CO)[C@@H]2O)(C(=O)O)C[C@@H]1O (stereo partly drawn) [3′SLGc, Neu5Gcα3Lac]
Binding to RgCBM40 detected by STD NMR (RgCBM40 [1]): detected | Kd (RgCBM40 [2]; Kd): 2.69 mM and ~3 mM

CC(=O)N[C@H]1[C@H]([C@H](O)[C@H](O)CO)O[C@@](O[C@H]2[C@@H](O)[C@@H](CO)O[C@@H](O[C@H]3[C@H](O)[C@@H](NC(C)=O)C(O)O[C@@H]3CO)[C@@H]2O)(C(=O)O)C[C@@H]1O (stereo partly drawn) [3′SLN, Neu5Acα3LacNAcβ]
Binding of RgGH33 D282A on sialoglycan microarray (RgGH33 D282A): interacted weakly | Binding to RgCBM40 detected by STD NMR (RgCBM40 [1]): detected

CC(=O)N[C@H]1[C@H]([C@H](O)[C@H](O)CO)OC(OC[C@H]2OC(O)[C@H](O)[C@@H](O)[C@H]2O)(C(=O)O)C[C@@H]1O (stereo partly drawn) [6′SGal, Neu5Acα6 Gal]
Binding to RgCBM40 detected by STD NMR (RgCBM40 [1]): detected

O=C(CO)N[C@H]1[C@H]([C@H](O)[C@H](O)CO)O[C@@](OC[C@H]2O[C@@H](O[C@H]3[C@H](O)[C@@H](O)C(O)O[C@@H]3CO)[C@H](O)[C@@H](O)[C@H]2O)(C(=O)O)C[C@@H]1O (stereo partly drawn) [6′SLGc, Neu5Gcα6Lac]
Binding to RgCBM40 detected by STD NMR (RgCBM40 [1]): detected | Kd (RgCBM40 [2]; Kd): ~11 mM and > 10 mM

CC(=O)N[C@H]1[C@H]([C@H](O)[C@H](O)CO)O[C@](OC[C@H]2O[C@@H](O[C@H]3[C@H](O)[C@@H](NC(C)=O)C(O)O[C@@H]3CO)[C@H](O)[C@@H](O)[C@H]2O)(C(=O)O)C[C@@H]1O (stereo partly drawn) [6′SLN, Neu5Acα6LacNAc]
Binding to RgCBM40 detected by STD NMR (RgCBM40 [1]): detected

CC(=O)N[C@H]1[C@H]([C@H](O)[C@H](O)COC(C)=O)O[C@@](O[C@H]2[C@@H](O)[C@@H](CO)O[C@@H](OCCCN=[N+]=[N-])[C@@H]2O)(C(=O)O)C[C@@H]1O [Neu5,9Ac2α3GalβR1]
Binding of RgCBM40 on sialoglycan microarray (RgCBM40 [3]): highest binding

O=C(CO)N[C@H]1[C@H]([C@H](O)[C@H](O)CO)OC(O)(C(=O)O)C[C@@H]1O (stereo partly drawn) [Neu5Gc]
Binding to RgCBM40 detected by STD NMR (RgCBM40 [1]): exception; also recorded: no interaction was observed | Binding to RgCBM40 (in words) (RgCBM40 [2]): weak binding | Kd (RgCBM40 [2]; read-out: Kd): ~21 mM and ~20 mM

CC(=O)NC1C(O)CC(OC2C(O)C(CO)OC(OC3C(O)C(CO)OC(O)C3NC(C)=O)C2O)(C(=O)O)OC1C(O)C(O)CO (stereo not drawn) [STF, Neu5Acα3Galβ3GalNAc]
Binding of RgGH33 D282A on sialoglycan microarray (RgGH33 D282A): interacted weakly

CC(=O)NC1C(O)CC(OC2C(O)C(CO)OC(OC3C(O)C(CO)OC(OCCCN=[N+]=[N-])C3NC(C)=O)C2O)(C(=O)O)OC1C(O)C(O)CO (stereo not drawn) [STFαOC3H6N3]
Binding to RgCBM40 detected by STD NMR (RgCBM40 [1]): detected

Neu5,9Ac2-TF9Ac2α2-3TF
Binding of RgCBM40 on sialoglycan microarray (RgCBM40 [3]): bound

Neu5,9Ac2α2-6Tn
Binding of RgCBM40 on sialoglycan microarray (RgCBM40 [3]): bound

Neu5Acα2-3TF
Binding of RgCBM40 on sialoglycan microarray (RgCBM40 [3]): bound

Neu5Acα2-6Tn
Binding of RgCBM40 on sialoglycan microarray (RgCBM40 [3]): bound

Neu5Acα3Galβ3GalNAcβ3Lac
Binding of RgGH33 D282A on sialoglycan microarray (RgGH33 D282A): interacted weakly

Neu5Acα3Lacβ [GM3]
Binding of RgGH33 D282A on sialoglycan microarray (RgGH33 D282A): interacted weakly

Neu5Acα6GalαOC3H6N3 [Neu5Ac-STn]
Binding to RgCBM40 detected by STD NMR (RgCBM40 [1]): detected

Neu5Gc9Acα3Galβ3GalNAcβR1 [Neu5Gc9Ac-TF]
Binding intensity on sialoglycan microarray, fold less (RgCBM40 [3]): 5–10 fold

Neu5Gcα3Galβ3GalNAcβR1 [Neu5Gc-TF]
Binding intensity on sialoglycan microarray, fold less (RgCBM40 [3]): 5–10 fold

Neu5Gcα6GalαOC3H6N3 [Neu5Gc-STn]
Binding to RgCBM40 detected by STD NMR (RgCBM40 [1]): detected

α2-3-sialylated Lewis X [3′SLX]
Binding of RgCBM40 on sialoglycan microarray (RgCBM40 [3]): bound
